Molecular target: T1, Ectonucleotide pyrophosphatase/phosphodiesterase family member 1 (Homo sapiens, UniProt P22413)
T1 sequence (P22413 whole entry): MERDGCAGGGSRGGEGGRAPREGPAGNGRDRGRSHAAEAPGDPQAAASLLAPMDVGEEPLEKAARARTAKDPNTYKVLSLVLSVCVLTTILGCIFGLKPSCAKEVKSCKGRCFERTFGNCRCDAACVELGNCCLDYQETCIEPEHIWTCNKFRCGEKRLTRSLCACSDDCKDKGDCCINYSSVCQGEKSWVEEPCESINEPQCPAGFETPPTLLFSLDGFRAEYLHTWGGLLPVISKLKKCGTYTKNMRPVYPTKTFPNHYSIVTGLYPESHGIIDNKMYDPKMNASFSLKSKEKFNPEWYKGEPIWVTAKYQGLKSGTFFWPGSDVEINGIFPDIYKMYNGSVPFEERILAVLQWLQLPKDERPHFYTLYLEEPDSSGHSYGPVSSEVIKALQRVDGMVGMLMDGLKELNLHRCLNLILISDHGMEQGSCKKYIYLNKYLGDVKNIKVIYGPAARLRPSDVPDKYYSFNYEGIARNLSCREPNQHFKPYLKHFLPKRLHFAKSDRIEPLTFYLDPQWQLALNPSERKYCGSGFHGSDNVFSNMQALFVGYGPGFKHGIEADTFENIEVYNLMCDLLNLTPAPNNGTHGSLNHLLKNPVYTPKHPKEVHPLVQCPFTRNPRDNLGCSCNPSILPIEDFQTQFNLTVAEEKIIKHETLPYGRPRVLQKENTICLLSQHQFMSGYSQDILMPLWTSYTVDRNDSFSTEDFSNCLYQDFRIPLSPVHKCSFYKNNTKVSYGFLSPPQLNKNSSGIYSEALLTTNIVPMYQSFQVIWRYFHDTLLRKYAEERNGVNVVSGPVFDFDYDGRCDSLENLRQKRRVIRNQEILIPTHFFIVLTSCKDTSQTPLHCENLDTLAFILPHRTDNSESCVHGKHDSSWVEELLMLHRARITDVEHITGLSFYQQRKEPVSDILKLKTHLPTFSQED
Experiment: Inhibition of human recombinant ENPP1 at pH 7.5

IC50: 89 nM
SMILES: COc1cc2nccc(Nc3ccc(CC(=O)NO)cc3)c2cc1OC [US20240383893, Compound A-1]

Source: BindingDB's records for PubMed 39270452 (Haihe Biopharma)
